Here are results for 25 compounds from doi:10.1101/2024.06.05.597555v1 (biorxiv, 2024).

One data set has as its system DENV-2. Put plainly: microbe, parasite or virus in culture. The following applies: Dengue virus, DENV2, Vero, 48 h, read-out: % inhibition.
For data set [1], the target named is T1, NS2B(H)-NS3pro (DENV-2 NS2B-NS3 protease) (Dengue virus 2 Thailand/NGS-C/1944, UniProt P14340).
T1 sequence (P14340 1394-1433 limits assumed): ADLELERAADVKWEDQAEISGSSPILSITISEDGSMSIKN
T1 sequence (P14340 1476-1660 limits assumed): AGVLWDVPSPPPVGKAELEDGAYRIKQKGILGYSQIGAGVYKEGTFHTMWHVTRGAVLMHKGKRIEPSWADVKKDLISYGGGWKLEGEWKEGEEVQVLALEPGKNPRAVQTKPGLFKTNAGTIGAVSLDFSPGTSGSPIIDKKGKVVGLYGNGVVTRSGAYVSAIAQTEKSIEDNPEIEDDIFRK
Kind of data set: fluorometric protease assay, AMC substrate. In kind it is biochemical. The following applies: pH 7.5, HEPES, CHAPS; substrate Bz-nKRR-AMC.

The nature of data set [2]: in vitro. Details: species or system DENV2proHeLa (HeLa). The following applies: human, denv2prohela cells.
The target in data set [3] is T2, DENV2proHeLa NS2B-NS3 protease (Dengue virus 2 Thailand/16681/84, UniProt P29990). Put plainly: cell-based. Details: species or system DENV2proHeLa (HeLa).
Data set [4] deals with T2, DENV2proHeLa NS2B-NS3 protease. Put plainly: cell-based. Details: species or system DENV2proHeLa (HeLa). The following applies: HeLa, read-out: % inhibition.
The target in data set [5] is T1, NS2B(H)-NS3pro (DENV-2 NS2B-NS3 protease). The note with it: read-out: IC50 (C7.5-HEPES AMC); AMC substrate, HEPES pH 7.5, CHAPS; inhibitor.
Data set [6] shares this target. Kind of data set: biochemical. The following applies: read-out: % inhibition.
In data set [7] the target is T2, DENV2proHeLa NS2B-NS3 protease. Kind of data set: cell-based.
Data set [8] can be described thus: in vitro. Details: species or system DENV2proHeLa (HeLa). The following applies: human, denv2prohela cells. The source holds these as a separate data set.
Data set [9] has as its target T2, DENV2proHeLa NS2B-NS3 protease. Put plainly: cell-based. Details: species or system DENV2proHeLa (HeLa). The note with it: HeLa, read-out: % inhibition. This is another data set of the same source.
Data set [10] is described as follows: in vitro. The note with it: human, denv2prohela cells. Details: species or system DENV2proHeLa (HeLa). The source holds these as a separate data set.
Data set [11] deals with T1, NS2B(H)-NS3pro (DENV-2 NS2B-NS3 protease). Kind of data set: biochemical. The note with it: read-out: % inhibition. This is another data set of the same source.
In data set [12] the target is T2, DENV2proHeLa NS2B-NS3 protease. Kind of data set: cell-based. Details: species or system DENV2proHeLa (HeLa). The note with it: HeLa, read-out: % inhibition. This is another data set of the same source.
The target is the same in data set [13]. Put plainly: cell-based. Details: species or system DENV2proHeLa (HeLa). This is another data set of the same source.
Data set [14] shares this target. Kind of data set: cell-based. Details: species or system DENV2proHeLa (HeLa). The note with it: HeLa, read-out: % inhibition. This is another data set of the same source.
Data set [15] can be described thus: in vitro. Details: species or system DENV2proHeLa (HeLa). The following applies: human, denv2prohela cells. The source holds these as a separate data set.
Setting [16] is: read-out: DENV2proHeLa EC50, inhibitor.

pEC50, pIC50: −log10 of the molar value. Like-named read-outs stand apart in the source and are kept apart here.

T2 sequence (P29990 1476-2093 limits assumed): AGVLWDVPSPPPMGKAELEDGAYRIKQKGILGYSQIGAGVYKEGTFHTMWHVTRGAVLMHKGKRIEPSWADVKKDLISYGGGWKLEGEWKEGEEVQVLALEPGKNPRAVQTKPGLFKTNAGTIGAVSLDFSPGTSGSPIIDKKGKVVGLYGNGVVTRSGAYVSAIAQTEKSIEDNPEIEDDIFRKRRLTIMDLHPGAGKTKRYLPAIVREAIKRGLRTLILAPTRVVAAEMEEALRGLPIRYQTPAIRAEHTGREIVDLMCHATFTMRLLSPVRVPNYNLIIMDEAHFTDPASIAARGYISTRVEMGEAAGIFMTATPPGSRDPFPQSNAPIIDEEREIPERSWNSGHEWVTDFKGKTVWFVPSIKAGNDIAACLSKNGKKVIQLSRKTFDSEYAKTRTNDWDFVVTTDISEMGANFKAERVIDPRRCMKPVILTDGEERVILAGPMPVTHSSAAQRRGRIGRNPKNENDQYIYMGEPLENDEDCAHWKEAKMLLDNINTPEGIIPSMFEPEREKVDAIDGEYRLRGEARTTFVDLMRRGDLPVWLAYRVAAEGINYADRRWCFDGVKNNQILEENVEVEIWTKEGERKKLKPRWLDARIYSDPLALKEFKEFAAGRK
T2 sequence (P29990 1346-1475 partner limits assumed): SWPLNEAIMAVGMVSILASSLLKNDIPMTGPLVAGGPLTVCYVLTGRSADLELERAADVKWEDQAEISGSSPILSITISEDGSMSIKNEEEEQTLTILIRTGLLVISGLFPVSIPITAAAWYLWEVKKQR

As usually defined, the inhibition is the drop in the measured response relative to a control, in per cent. On to `COc1ccc(/C=C/C(=O)C(=O)NC(C)(C)C)cc1OC` [GG-80-1], for which, in the data set with DENV-2, the inhibition at 25 µM was 97%.

With `CC(C)(C)NC(=O)C(=O)/C=C/c1c[nH]c2ccccc12` [GG-92], the inhibition at 25 µM in the data set on DENV-2 came to 40%.

As usually defined, the pIC50 is the negative decadic logarithm of the IC50, by convention in mol/L. As for `NC(=O)c1cccc(NC(=O)[C@@H](NC(=O)c2ccc(Oc3ccccc3)cc2)c2ccc(OCc3ccccc3)cc2)c1` [compound 1], in data set [1], the pIC50 was 4.89.

For orientation: CC50 means the concentration at which the toxic effect on the cells reaches its halfway point. A higher CC50 goes with lower toxicity to the cells. A word on the pEC50: it is the negative decadic logarithm of the EC50, by convention in mol/L. As for `CC(C)Cc1ccc(C(C)C(=O)N[C@H](C(=O)Nc2cccc(C(N)=O)c2)c2ccc(OCc3ccccc3)cc2)cc1` (stereo partly drawn) [compound 3, 3], the CC50 in “in vitro [2]” is over 25 µM. The compound further gave a pEC50 in [3] of 5.42. Besides, in data set [4], the inhibition at 12.5 µM amounted to 84%. Further, the pIC50 in data set [5] was 5.10.

As to `CC(C(=O)N[C@H](C(=O)Nc1cccc(C(N)=O)c1)c1ccc(OCc2ccccc2)cc1)c1cccc(Oc2ccccc2)c1` (stereo partly drawn) [compound 4, 4], in the data set on DENV-2, the inhibition at 25 µM was determined as 85%. For the same compound, the CC50 in the data set “in vitro [2]” was over 50 µM. The pEC50 in data set [3] (setting [16]) was 5.40. Also, the inhibition at 12.5 µM in data set [4] turned out to be 86%. Besides, in [6], the inhibition at 50 µM stood at 100%. Also, the pIC50 in data set [5] is 5.01.

For the compound `NC(=O)c1cccc(NC(=O)[C@@H](NC(=O)c2ccc(-c3ccccc3)o2)c2ccc(OCc3ccccc3)cc2)c1` [compound 5, 5], the inhibition at 25 µM in the data set with DENV-2 was found to be 96%. This compound displayed a CC50 in the data set “in vitro [2]” of over 100 µM. Further, the pEC50 in data set [3] (setting [16]) was 5.23. Moreover, the inhibition at 12.5 µM in [4] stood at 85%. The inhibition at 50 µM in [6] was 100%. For the same compound, the pIC50 in [5] is 5.03.

Turning to `CC(C(=O)NCC1(CC(=O)N[C@H](C(=O)Nc2cccc(C(N)=O)c2)c2ccc(OCc3ccccc3)cc2)CCCCC1)c1ccc2c(c1)[nH]c1ccc(Cl)cc12` (stereo partly drawn) [compound 6, 6], the CC50 in “in vitro [2]” is over 50 µM. In data set [3] (setting [16]), the pEC50 is 5.54. In addition, the inhibition at 12.5 µM in [4] turned out to be 60%. In addition, in data set [6], the inhibition at 50 µM stood at 99%. Besides, in [5], the pIC50 is 5.10.

`NC(=O)c1cccc(NC(=O)[C@@H](NC(=O)c2ccc(Nc3ccccc3)cc2)c2ccc(OCc3ccccc3)cc2)c1` [compound 7]: the inhibition at 25 µM in the data set on DENV-2 was under 10%. The CC50 in “in vitro [2]” was at least 100 µM. Moreover, in data set [4], the inhibition at 12.5 µM stood at 93%. In [7], this compound gave a pEC50 of 6.15. The inhibition at 50 µM in [6] stood at 99%.

`COc1cc(C(=O)N[C@H](C(=O)Nc2cccc(C(N)=O)c2)c2ccc(OCc3ccccc3)cc2)ccc1Oc1ccccc1` [compound 8, 8] came in with a CC50 in the data set “in vitro [2]” of over 100 µM. The same compound showed a pEC50 in [3] of 5.85. Besides, the inhibition at 12.5 µM in [4] was 86%. Also, the inhibition at 50 µM in data set [6] was 99%. Besides, in [5], the negative-log IC50 (pIC50) was 4.92.

In the case of `NC(=O)c1cccc(NC(=O)[C@@H](NC(=O)Cc2ccccc2Nc2c(Cl)cccc2Cl)c2ccc(OCc3ccccc3)cc2)c1` [compound 9, 9], the CC50 in the data set “in vitro [2]” was over 50 µM. The compound further gave a pEC50 in [3] of 5.07. Also, the inhibition at 12.5 µM in data set [4] is 60%. Besides, the inhibition at 50 µM in [6] is 99%. In data set [5], the pIC50 was 5.00.

Compound `COc1ccc2cc([C@H](C)C(=O)N[C@H](C(=O)Nc3cccc(C(N)=O)c3)c3ccc(OCc4ccccc4)cc3)ccc2c1` [compound 10, 10] returned a CC50 in the data set “in vitro [2]” of over 100 µM. The pEC50 in data set [3] (setting [16]) was 5.43. In addition, in [4], the inhibition at 12.5 µM was 71%. The pIC50 in data set [5] is 4.92.

Take `NC(=O)c1cccc(NC(=O)[C@@H](NC(=O)Cc2ccc(Oc3ccccc3)cc2)c2ccc(OCc3ccccc3)cc2)c1` [compound 11, 11]: in the data set “in vitro [2]”, the CC50 was over 50 µM. The same compound showed a pEC50 in data set [3] of 5.16. Also, in [4], the inhibition at 12.5 µM came out at 78%. Further, the inhibition at 50 µM in [6] turned out to be 99%. The pIC50 in data set [5] is 4.85.

As to `CC(CC(=O)N[C@H](C(=O)Nc1cccc(C(N)=O)c1)c1ccc(OCc2ccccc2)cc1)CC(C)(C)C` (stereo partly drawn) [compound 16], in the data set with DENV-2, the inhibition at 25 µM was determined as 98%. Besides, the CC50 in the data set “in vitro [8]” is at least 100 µM. The compound further had a pEC50 in [7] of 4.96. In [1], this compound gave a pIC50 of 4.96. For the same compound, the inhibition at 12.5 µM in [9] was 61%.

Compound `NC(=O)c1cccc(NC(=O)[C@@H](NC(=O)c2cc(O)n(-c3ccccc3)n2)c2ccc(OCc3ccccc3)cc2)c1` [compound 27] returned a CC50 in “in vitro [8]” of over 50 µM. The compound also showed a pIC50 in [1] of 4.52. For the same compound, the inhibition at 12.5 µM in data set [9] was 24%.

Turning to `NC(=O)c1cccc(NC(=O)[C@@H](NC(=O)c2ccc(Oc3ccccc3)nc2)c2ccc(OCc3ccccc3)cc2)c1` [compound 33], the CC50 in “in vitro [10]” is over 100 µM. In [7], this compound showed a pEC50 of 5.06. Moreover, the inhibition at 50 µM in [11] turned out to be 70%. The inhibition at 12.5 µM in data set [12] is 55%. For the same compound, in [1], the pIC50 is 4.47.

In turn, `CC(C)CCC(=O)N1CCC(C(=O)N[C@H](C(=O)Nc2cccc(C(N)=O)c2)c2ccc(OCc3ccccc3)cc2)CC1` [compound 34, 34] gave a pEC50 in data set [13] of 4.96. The compound also yielded a CC50 in “in vitro [10]” of over 100 µM. Moreover, the inhibition at 50 µM in [11] is 69%. In addition, in data set [12], the inhibition at 12.5 µM was found to be 53%.

For the compound `Cc1nc(-c2ccncc2)sc1C(=O)N[C@H](C(=O)Nc1cccc(C(N)=O)c1)c1ccc(OCc2ccccc2)cc1` [compound 35, 35], in the data set “in vitro [10]”, the CC50 is over 50 µM. Moreover, in data set [11], the inhibition at 50 µM was 69%. Besides, the inhibition at 12.5 µM in [12] stood at 78%.

Compound `NC(=O)c1cccc(NC(=O)C(NC(=O)c2ccccc2)c2ccc(OCc3ccccc3)cc2)c1` (stereo not drawn) [compound 42, 42] had a CC50 in “in vitro [10]” of over 100 µM. For the same compound, the inhibition at 50 µM in [11] was determined as 56%. The inhibition at 12.5 µM in [12] was found to be 80%.

As to `NC(=O)c1cccc(NC(=O)C(CC2CCCCC2)NC(=O)c2ccc(Oc3ccccc3)cc2)c1` (stereo not drawn) [compound 64, 64], in [14], the inhibition at 12.5 µM came out at 82%. For the same compound, half-maximal cytotoxicity in the data set “in vitro [15]” (CC50) was put at 40 µM.

In the case of `NC(=O)c1cccc(NC(=O)C(Cc2ccc3ccccc3c2)NC(=O)c2ccc(Oc3ccccc3)cc2)c1` (stereo not drawn) [compound 65], in data set [7], the pEC50 was 5.13. Moreover, the inhibition at 12.5 µM in [14] came to 55%. The compound further had a CC50 in “in vitro [15]” of over 50 µM. The pIC50 in [1] is 5.23.

For `NC(=O)c1cccc(NC(=O)C(CCc2ccccc2)NC(=O)c2ccc(Oc3ccccc3)cc2)c1` (stereo not drawn) [compound 66, 66], the inhibition at 12.5 µM in data set [14] came out at 67%. The compound also yielded a CC50 in “in vitro [15]” of over 50 µM.

Take `NC(=O)c1cccc(NC(=O)C(Cc2ccc(NCc3ccccc3)cc2)NC(=O)c2ccc(Oc3ccccc3)cc2)c1` (stereo not drawn) [compound 68]: the CC50 in the data set “in vitro [15]” is over 50 µM. In data set [1], the pIC50 is 4.82.

On to `NC(=O)c1cccc(NC(=O)C(Cc2ccccc2)NC(=O)c2ccc(Oc3ccccc3)cc2)c1` (stereo not drawn) [compound 70, 70], for which the inhibition at 12.5 µM in data set [14] worked out at 55%. Also, the CC50 in the data set “in vitro [15]” was over 50 µM.

As to `NC(=O)c1cccc(NC(=O)C(CCC(=O)Nc2ccccc2)NC(=O)c2ccc(Oc3ccccc3)cc2)c1` (stereo not drawn) [compound 71, 71], in data set [14], the inhibition at 12.5 µM was found to be 45%. For the same compound, the CC50 in “in vitro [15]” is over 50 µM.

Consider `CC(C)CC(NC(=O)c1ccc(Oc2ccccc2)cc1)C(=O)Nc1cccc(C(N)=O)c1` (stereo not drawn) [compound 73, 73], for which the inhibition at 12.5 µM in [14] came out at 36%. Also, the CC50 in “in vitro [15]” was at least 50 µM.
